Assay results published in patent US8119660B2, “Small-molecule inhibitors of the androgen receptor” (The Regents of the University of California, priority 2007, dated 2012).
“Also recorded” adds a separate entry of the source. Where a name gives a salt, the structure may show the parent alone.

Tests used:
[1] = target: T1, endogenous AR with a mutation (T877A), LNCaP cells (Homo sapiens, UniProt P10275, T878A); experiment: PSA-luciferase reporter assay in LNCaP cells with DHT; type: cell-based
T1 construct: that each express endogenous AR; endogenous in cells; host or cells: LNCaP
T1 sequence (P10275 1-920 T878A): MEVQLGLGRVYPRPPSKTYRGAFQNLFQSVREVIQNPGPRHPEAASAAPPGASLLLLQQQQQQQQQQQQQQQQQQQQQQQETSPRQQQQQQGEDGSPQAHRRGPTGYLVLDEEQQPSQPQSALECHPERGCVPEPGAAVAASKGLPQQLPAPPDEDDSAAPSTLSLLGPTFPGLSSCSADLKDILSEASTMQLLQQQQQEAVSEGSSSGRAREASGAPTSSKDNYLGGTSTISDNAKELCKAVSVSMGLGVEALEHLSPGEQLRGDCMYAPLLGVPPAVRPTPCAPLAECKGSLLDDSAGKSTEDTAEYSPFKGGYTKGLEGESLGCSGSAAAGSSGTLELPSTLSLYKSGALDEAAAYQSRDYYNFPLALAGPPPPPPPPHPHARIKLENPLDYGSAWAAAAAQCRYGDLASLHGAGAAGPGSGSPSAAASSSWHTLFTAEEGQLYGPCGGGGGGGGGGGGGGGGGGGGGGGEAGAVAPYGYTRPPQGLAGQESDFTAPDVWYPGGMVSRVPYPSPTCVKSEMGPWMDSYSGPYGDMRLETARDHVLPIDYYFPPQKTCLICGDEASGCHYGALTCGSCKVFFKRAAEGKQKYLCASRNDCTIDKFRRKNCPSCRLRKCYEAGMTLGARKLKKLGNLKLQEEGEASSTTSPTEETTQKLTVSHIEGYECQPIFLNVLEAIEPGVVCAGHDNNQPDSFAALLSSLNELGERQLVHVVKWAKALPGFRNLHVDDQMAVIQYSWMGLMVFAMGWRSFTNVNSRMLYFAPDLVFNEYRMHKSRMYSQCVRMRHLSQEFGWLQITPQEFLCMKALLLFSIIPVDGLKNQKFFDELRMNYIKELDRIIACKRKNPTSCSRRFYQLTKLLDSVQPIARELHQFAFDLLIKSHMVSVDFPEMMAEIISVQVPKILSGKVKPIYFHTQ
Procedure: Cells were transfected with two reporter plasmids, a PSA-luciferase construct (androgen responsive), and an SV40-renilla luciferase construct as an internal control. The following day, the cells were split and drugs added in the presence of 3 nM DHT. Luciferase production was measured the following day (Dual luciferase assay kit, Promega).
Synergism can be defined as a combination index of less than one, using the non-exclusive assumption described by Chou et al. (Chou, T. C. and P. Talalay, Quantitative analysis of dose-effect relationships: the combined effects of multiple drugs or enzyme inhibitors. Adv Enzyme Regul, 1984. 22: p. 27-55).

[2] = tested on: endogenous AR-regulated gene expression, LNCaP cells; experiment: qRT-PCR of androgen-responsive genes in LNCaP cells; type: cell-based, human; details: No DHT = 1, 3 nM DHT alone or with 1 uM BIC, 100 nM PP or 100 nM HH
Procedure: LAPC4 and LNCaP cells were grown in the presence or absence of 3 nM DHT in charcoal-stripped media, with or without the inhibitors. RNA was harvested using an RNAeasy kit (Qiagen) and reverse transcribed (MMLV-RT, Invitrogen). Real-time PCR was carried out on a 7300 Real Time PCR System (Applied Biosystems) using SYBR green as the detecting dye and Rox as the reference dye. The androgen responsive genes kalikrein 3, or PSA (KLK3) [Cleutjens, K. B., et al., Two androgen response regions cooperate in steroid hormone regulated activity of the prostate-specific antigen promoter. J Biol Chem, 1996. 271(11): p. 6379-88; Nelson, P. S., et al., The program of androgen-responsive genes in neoplastic prostate epithelium. Proc Natl Acad Sci USA, 2002. 99(18): p. 11890-5), metalloproteinase 16 (MMP16) (Nelson, P. S., et al., The program of androgen-responsive genes in neoplastic prostate epithelium. Proc Natl Acad Sci USA, 2002. 99(18): p. 11890-5), transmembrane protease serine 2 (TMPRSS2) (Nelson, P. S., et al., The program of androgen-responsive genes in neoplastic prostate epithelium. Proc Natl Acad Sci USA, 2002. 99(18): p. 11890-5; […] Vaarala, M. H., et al., Expression of transmembrane serine protease TMPRSS2 in mouse and human tissues. J Pathol, 2001. 193(1): p. 134-40), FK506-binding immunophilin 51 (FKBP51) (Nelson, P. S., et al., The program of androgen-responsive genes in neoplastic prostate epithelium. Proc Natl Acad Sci USA, 2002. 99(18): p. 11890-5; Amler, L. C., et al., Dysregulated expression of androgen-responsive and nonresponsive genes in the androgen-independent prostate cancer xenograft model CWR22-R1. Cancer Res, 2000. 60(21): p. 6134-41; Velasco, A. M., et al., Identification and validation of novel androgen-regulated genes in prostate cancer. Endocrinology, 2004. 145(8): p. 3913-24; Magee, J. A., et al., Direct, androgen receptor-mediated regulation of the FKBP5 gene via a distal enhancer element. Endocrinology, 2006. 147(1): p. 590-8), G-protein coupled receptor RDC1 homolog, or chemokine orphan receptor 1 (RDC-1) (Nelson, P. S., et al., The program of androgen-responsive genes in neoplastic prostate epithelium. Proc Natl Acad Sci USA, 2002. 99(18): p. 11890-5), NK homeobox family member 3 (Nk×3.1) (Nelson, P. S., et al., The program of androgen-responsive genes in neoplastic prostate epithelium. Proc Natl Acad Sci USA, 2002. 99(18): p. 11890-5; Bieberich, C. J., et al., Prostate-specific and androgen-dependent expression of a novel homeobox gene. J Biol Chem, 1996. 271(50): p. 31779-82; […]) were all normalized to the transcription of the housekeeping ribosomal gene (RPL19). All samples were done in triplicate and separately normalized.

SMILES: Cc1nccc2c1[nH]c1cc(O)ccc12 [HH, harmol hydrochloride]
- IC50 ([1]; LNCaP cells, 3 nM DHT): 127 nM
- Mode of antagonism: effect on DHT dose-response of PSA-luciferase ([1]; LNCaP, DHT titrated, moderate dose of each inhibitor, hydrochloride): inhibited maximal DHT-induced activation; also recorded: pattern consistent with a non-competitive antagonist
- FKBP51 transcription (normalized to RPL19) [2]: 1.90
- KLK3 transcription (normalized to RPL19) [2]: 1.46
- MMP16 transcription (normalized to RPL19), androgen-repressed gene [2]: 1.02
- Nkx3.1 transcription (normalized to RPL19) [2]: 1.28
- RDC1 transcription (normalized to RPL19), androgen-repressed gene [2]: 1.22
- TMPRSS2 transcription (normalized to RPL19) [2]: 1.22
